The supplement of paper PMC11061612

Legend:
Trametinib = compound: CC(=O)Nc1cccc(-n2c(=O)n(C3CC3)c(=O)c3c(Nc4ccc(I)cc4F)n(C)c(=O)c(C)c32)c1 [Trametinib]; conditions: max 1 µM
Method in brief: (§1)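 Plates with 1536 wells received cancer cell lines in 7.5 μl of DMEM/F12 or RPMI containing 10% FBS. After 24 hours at 37°C and 5% CO2, cells were dosed for 72 hours with final DMSO typically 0.2%, and viability was read by CellTiter-Glo 2.0 luminescence scaled between blank-well and DMSO-well means. The single-agent IC50 was taken from a logistic fit of the dose responses made with a non-linear mixed effects model, that logistic curve having two parameters.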

AZD1390 = compound: CC(C)n1c(=O)n(C)c2cnc3cc(F)c(-c4ccc(OCCCN5CCCCC5)nc4)cc3c21 [AZD1390]; conditions: max 0.3 µM
Method in brief: as §1

AZD5153 = compound: COc1nnc2ccc(N3CCC(c4ccc(OCCN5CCN(C)C(=O)[C@H]5C)cc4)CC3)nn12 [AZD5153]; conditions: max 1 µM
Method in brief: as §1

SG3199 = compound: CC1=CN2[C@@H](C1)C=NC3=CC(=C(C=C3C2=O)OC)OCCCCCOC4=C(C=C5C(=C4)N=C[C@@H]6CC(=CN6C5=O)C)OC [SG3199]; conditions: max 0.001 µM
Method in brief: as §1

Gefitinib = compound: COc1cc2ncnc(Nc3ccc(F)c(Cl)c3)c2cc1OCCCN1CCOCC1 [Gefitinib]; conditions: max 10 µM
Method in brief: as §1

AZD8186 = compound: C[C@@H](Nc1cc(F)cc(F)c1)c1cc(C(=O)N(C)C)cc2c(=O)cc(N3CCOCC3)oc12 [AZD8186]; conditions: max 3 µM
Method in brief: as §1

AZD0156 = compound: CN(C)CCCOc1ccc(-c2ccc3ncc4c(c3c2)n(C2CCOCC2)c(=O)n4C)cn1 [AZD0156]; conditions: max 3 µM
Method in brief: as §1

Capivasertib = compound: C1CN(CCC1(C(=O)N[C@@H](CCO)C2=CC=C(C=C2)Cl)N)C3=NC=NC4=C3C=CN4 [Capivasertib]; conditions: max 10 µM
Method in brief: as §1

Crizotinib = compound: C[C@@H](Oc1cc(-c2cnn(C3CCNCC3)c2)cnc1N)c1c(Cl)ccc(F)c1Cl [Crizotinib]; conditions: max 10 µM
Method in brief: as §1

Lapatinib = compound: CS(=O)(=O)CCNCc1ccc(-c2ccc3ncnc(Nc4ccc(OCc5cccc(F)c5)c(Cl)c4)c3c2)o1 [Lapatinib]; conditions: max 10 µM
Method in brief: as §1

Dasatinib = compound: CC1=C(C(=CC=C1)Cl)NC(=O)C2=CN=C(S2)NC3=CC(=NC(=N3)C)N4CCN(CC4)CCO [Dasatinib]; conditions: max 2 µM
Method in brief: as §1

Doxorubicin = compound: COc1cccc2c1C(=O)c1c(O)c3c(c(O)c1C2=O)C[C@@](O)(C(=O)CO)C[C@@H]3O[C@H]1C[C@H](N)[C@H](O)[C@H](C)O1 [Doxorubicin]; conditions: max 1 µM
Method in brief: as §1

AZD2811 = compound: CCN(CCO)CCCOc1ccc2c(Nc3cc(CC(=O)Nc4cccc(F)c4)[nH]n3)ncnc2c1 [AZD2811]; conditions: max 1 µM
Method in brief: as §1

AZD5991 = compound: Cc1c2c(nn1C)CSCc1cc(n(C)n1)CSc1cc(c3ccccc3c1)OCCCc1c(C(=O)O)n(C)c3c-2c(Cl)ccc13 [AZD5991]; conditions: max 1 µM
Method in brief: as §1

AZD4320 = compound: CN(CC[C@H](CSC1=CC=CC=C1)NC2=C(C=C(C=C2)S(=O)(=O)NC(=O)C3=CC=C(C=C3)N4CCC(CC4)[C@H](C5=CC=CC=C5C6=CC=C(C=C6)Cl)O)S(=O)(=O)C(F)(F)F)CCO [AZD4320]; conditions: max 1 µM
Method in brief: as §1

Savolitinib = compound: C[C@@H](c1ccc2nccn2c1)n1nnc2ncc(-c3cnn(C)c3)nc21 [Savolitinib]; conditions: max 1 µM
Method in brief: as §1

Olaparib = compound: O=C(c1cc(Cc2n[nH]c(=O)c3ccccc23)ccc1F)N1CCN(C(=O)C2CC2)CC1 [Olaparib]; conditions: max 10 µM
Method in brief: as §1

Prexasertib = compound: COc1cccc(OCCCN)c1-c1cc(Nc2cnc(C#N)cn2)n[nH]1 [Prexasertib]; conditions: max 1 µM
Method in brief: as §1

Palbociclib = compound: CC(=O)c1c(C)c2cnc(Nc3ccc(N4CCNCC4)cn3)nc2n(C2CCCC2)c1=O [Palbociclib]; conditions: max 10 µM
Method in brief: as §1

Taselisib = compound: Cc1nc(-c2cn3c(n2)-c2ccc(-c4cnn(C(C)(C)C(N)=O)c4)cc2OCC3)n(C(C)C)n1 [Taselisib]; conditions: max 10 µM
Method in brief: as §1

Selumetinib = compound: Cn1cnc2c(F)c(Nc3ccc(Br)cc3Cl)c(C(=O)NOCCO)cc21 [Selumetinib]; conditions: max 10 µM
Method in brief: as §1

SN-38 = compound: CCc1c2c(nc3ccc(O)cc13)-c1cc3c(c(=O)n1C2)COC(=O)[C@]3(O)CC [SN-38]; conditions: max 0.3 µM
Method in brief: as §1

Alisertib = compound: COc1cc(Nc2ncc3c(n2)-c2ccc(Cl)cc2C(c2c(F)cccc2OC)=NC3)ccc1C(=O)O [Alisertib]; conditions: max 10 µM
Method in brief: as §1

AZD1775 = compound: C=CCn1c(=O)c2cnc(Nc3ccc(N4CCN(C)CC4)cc3)nc2n1-c1cccc(C(C)(C)O)n1 [AZD1775]; conditions: max 3 µM
Method in brief: as §1

AZD7648 = compound: Cc1cc2ncnn2cc1Nc1ncc2c(n1)n(C1CCOCC1)c(=O)n2C [AZD7648]; conditions: max 10 µM
Method in brief: as §1

AZD6738 = compound: C[C@@H]1COCCN1C2=NC(=NC(=C2)C3(CC3)[S@](=N)(=O)C)C4=C5C=CNC5=NC=C4 [AZD6738]; conditions: max 10 µM
Method in brief: as §1

Venetoclax = compound: CC1(C)CCC(CN2CCN(c3ccc(C(=O)NS(=O)(=O)c4ccc(NCC5CCOCC5)c([N+](=O)[O-])c4)c(Oc4cnc5[nH]ccc5c4)c3)CC2)=C(c2ccc(Cl)cc2)C1 [Venetoclax]; conditions: max 1 µM
Method in brief: as §1

Row | Cell Line | IC50, cell viability 72 h (Trametinib) [µM] | IC50, cell viability 72 h (AZD1390) [µM] | IC50, cell viability 72 h (AZD5153) [µM] | IC50, cell viability 72 h (SG3199) [µM] | IC50, cell viability 72 h (Gefitinib) [µM] | IC50, cell viability 72 h (AZD8186) [µM] | IC50, cell viability 72 h (AZD0156) [µM] | IC50, cell viability 72 h (Capivasertib) [µM] | IC50, cell viability 72 h (Crizotinib) [µM] | IC50, cell viability 72 h (Lapatinib) [µM] | IC50, cell viability 72 h (Dasatinib) [µM] | IC50, cell viability 72 h (Doxorubicin) [µM] | IC50, cell viability 72 h (AZD2811) [µM] | IC50, cell viability 72 h (AZD5991) [µM] | IC50, cell viability 72 h (AZD4320) [µM] | IC50, cell viability 72 h (Savolitinib) [µM] | IC50, cell viability 72 h (Olaparib) [µM] | IC50, cell viability 72 h (Prexasertib) [µM] | IC50, cell viability 72 h (Palbociclib) [µM] | IC50, cell viability 72 h (Taselisib) [µM] | IC50, cell viability 72 h (Selumetinib) [µM] | IC50, cell viability 72 h (SN-38) [µM] | IC50, cell viability 72 h (Alisertib) [µM] | IC50, cell viability 72 h (AZD1775) [µM] | IC50, cell viability 72 h (AZD7648) [µM] | IC50, cell viability 72 h (AZD6738) [µM] | IC50, cell viability 72 h (Venetoclax) [µM]
1 | JHH-1 (Hepatocellular Carcinoma) | 0.41 | > 0.3 | > 1 | > 0.001 | > 10 | > 3 | > 3 | > 10 | > 10 | > 10 | > 2 | > 1 | > 1 | > 1 | > 1 | > 1 | > 10 | 0.259 | > 10 | > 10 | > 10 | > 0.3 | > 10 | 1.27 | > 10 | > 10 | > 1
2 | NCI-H196 (Small Cell Lung Carcinoma) | > 1 | > 0.3 | > 1 | > 0.001 | > 10 | > 3 | > 3 | > 10 | > 10 | > 10 | > 2 | > 1 | > 1 | > 1 | > 1 | > 1 | > 10 | 0.17 | > 10 | > 10 | > 10 | > 0.3 | > 10 | 2.11 | > 10 | > 10 | > 1
3 | NCI-H1155 (Non-Small Cell Lung Carcinoma) | > 1 | > 0.3 | 0.541 | > 0.001 | > 10 | > 3 | > 3 | 8.34 | > 10 | > 10 | > 2 | 0.617 | > 1 | > 1 | > 1 | > 1 | > 10 | 0.0491 | > 10 | > 10 | > 10 | 0.00468 | 9.88 | > 3 | > 10 | 5.97 | > 1
4 | NCI-H1563 (Lung Adenocarcinoma) | > 1 | > 0.3 | > 1 | > 0.001 | > 10 | 2.27 | > 3 | > 10 | > 10 | > 10 | 1.12 | > 1 | > 1 | > 1 | > 1 | > 1 | > 10 | > 1 | > 10 | 2.48 | > 10 | > 0.3 | > 10 | > 3 | > 10 | > 10 | > 1
